# Data taken from PMC10945555, “Improving Activity of New Arylurea Agents against Multidrug-Resistant and Biofilm-Producing Staphylococcus epidermidis” (ACS Medicinal Chemistry Letters, 2024).
# How the values were obtained:
# [1] = test system: BJ cells; experiment: Cytotoxicity, MTT assay, skin fibroblasts; assay type: cell-based, human; settings: for IC50: Homo sapiens, MTT, 24 h, n = 3
# Experimental: (§1) The following cell models were used in the research: rat cardiomyocytes (H9c2 line) and human skin fibroblasts (BJ line). All cell lines used in the work are commercially available and were purchased from ATCC banks (the American Type Culture Collection, Manassas, VI, USA). Cell cultures were carried out in an incubator under standard conditions (37°C, 5% CO 2).
# (§2) Culture media (Dulbecco's Modified Eagle's Medium -DMEM (H9c2) and Eagle's Minimum Essential Medium-EMEM (BJ) were supplemented with 10% bovine serum and a 1% mixture of penicillin and streptomycin antibiotics. […]
# (§3) doxorubicin (a cytotoxic drug) were used as reference and positive control, respectively. […]
# (§4) solution (5 mg/mL) was transferred into culture medium of incubated cells. After 3 h, once dark crystals of formazan were produced in cells, medium was aspirated and 100 μ L of DMSO was added to dissolve formazan. Absorbance of DMSO solution was read on a multiwell plate reader (Spectra Max iD3, Molecular Devices) at 570 nm. In order to determine viability, absorbance of experimental wells was divided by absorbance of contro l well (not treated) and multiplied by 100 (%). Three separate experiments were performed. IC 50 was calculated using non-linear regression method in OriginPro software. […]
# [2] = test system: H9c2 cells; experiment: Cytotoxicity, MTT assay, cardiomyocytes; assay type: cell-based; settings: Rattus norvegicus, 24 h, n = 3
# Experimental: as §1, §2, §3
# as §4, with “incubated with studied compound in appropriate concentration for next 24 h. Then MTT solution (5” for “solution (5”
# [3] = test system: Staphylococcus epidermidis ATCC 35984; experiment: MIC, broth microdilution, MDR/BPSE reference strain; assay type: cell-based; settings: for MIC: Staphylococcus epidermidis, ATCC35984, read-out: MIC MDR/BPSE, Staphylococcus epidermidis ATCC 35984
# Description: These strains included susceptible, multidrug-resistant, and biofilm-producing strains of S. epidermidis and S. aureus (MSSE, MDR/BPSE, and MDR/BPSA, respectively). The cornerstone antibiotic linezolid served as a positive control (Table 1). The impact of structural modifications at the aryloxy fragment and the aromatic moiety bound to the propyl linker on the inhibitory activity was initially investigated. […] Further optimization focused on evaluating the impact of the type of substituent and its position on the arylsulfonamide fragment’s activity.
# (§5) 2 Biological assay protocols
# (§6) Microbiological tests were carried out under aseptic conditions in a laminar chamber of the 2nd […]
# (§7) (BioTectum 1.2, Alchem Poland). The assessment of antimicrobial activity was carried out for final compounds in the form of free bases, soluble in DMSO (Merck, Germany), at the initial […]
# (§8) concentration of 1 mg/mL. […]
# (§9) were provided by Cayman Chemical, USA.
# (§10) The activity of all newly synthesized compounds was tested in vitro on a panel of selected reference strains from the American Type Culture Collection (ATCC) of Gram-positive […]
# (§11) 2.2 Effect of evaluated compounds on planktonic cells
# (§12) The susceptibility of three reference bacterial strains (Staphylococcus epidermidis ATCC […]
# (§13) Table S1) and 81 clinical MDR S. epidermidis (Table S2) to the tested compounds was assessed by determining the MIC value (Minimal Inhibitory Concentration) by microdilution in a liquid medium in 96-well flat-bottom cell culture plates (Nest Biotechnology Scientific, USA). The antibacterial properties of the compo unds were tested in the concentration range from 50 µg/mL to 0.1 µg/mL by making a series of double dilutions of the compound in liquid Mueller -Hinton II Broth Cation Adjusted (MHB II, BBL TM, USA) according to the European Committee on […]
# (§14) Antimicrobial Susceptibility Testing guidelines (EUCAST).2,3 The determinations were performed twice. The MIC50 and MIC90 values were determined for each of the tested
# [4] = test system: Staphylococcus epidermidis no. 44; experiment: Real-time bacterial growth analysis; assay type: cell-based; settings: real-time growth analysis and MBC/MIC ratio
# Experimental: (reduction of navy blue resazurin to pink resorufin in the presence of metabolically active cells) compared to the negative (sterile medium without bacteria and compounds) and positive control (medium with bacteria).9 The minimal biofilm eradication concentration value was analyzed using a high throughput screening the MBEC Assay® Kit (Innovotech, Canada), formerly the Calgary Biofilm Device, according to the manufacturer's insert.10
# 2.4.1 Determination of biofilm viability by confocal laser scanning microscope (CLSM) […]
# by the selected strains was observed using the confocal laser scanning microscopy technique (CLSM, model Inverted Microscope for Industry Leica DMi8, Wetzlar, Germany). Biofilms were grown on Millicell® EZ SLIDE slides (Merck, Germany)11 and incubated with FilmTracer™ SYPRO™ Ruby Biofilm Matrix Stain (ThermoFisher Scientific, USA).12 2.5 Evaluation of bacteriostatic/bactericidal properties […]
# determining MBC (Minimal Bactericidal Concentration) values. The study was conducted in accordance with the guidelines of the Clinical and Laboratory Standards Institute (CLSI).13 The MBC value was assumed to be the concentration of the compound inhibiting the growth of strains in 99.9%. Then, the value of the MBC/MIC ratio was calculated to assess its bactericidal or bacteriostatic activity. […]
# compound 25 and linezolid expressed as changes in OD600 over time. […]
# [5] = test system: Acinetobacter baumannii ATCC 19606; experiment: MIC, Gram-negative reference strain; assay type: cell-based; settings: for MIC: Acinetobacter baumannii, ATCC19606
# Experimental: as §5, §6, §7, §8, §9, §10, §11, §12, §13, §14
# [6] = test system: Escherichia coli ATCC 25922; experiment: MIC, Gram-negative reference strain; assay type: cell-based; settings: for MIC: Escherichia coli, ATCC25922
# Experimental: as §5, §6, §7, §8, §9, §10, §11, §12, §13, §14
# [7] = test system: Pseudomonas aeruginosa ATCC 27853; experiment: MIC, Gram-negative reference strain; assay type: cell-based; settings: for MIC: Pseudomonas aeruginosa, ATCC27853, read-out: MIC P. aeruginosa
# Experimental: as §5, §6, §7, §8, §9, §10, §11, §12, §13, §14
SMILES,IC50 [1],IC50 [2],increase of activity against MDR/BPSE compared to hit I [3],MIC [3],"visible change in the appearance of the cells ([1]; 18 hours, sector F 25 µM, G 50 µM, tested 2.5-50 µM)",bacteriostatic/bactericidal properties [4],MIC A. baumannii [5],MIC [5],MIC E. coli [6],MIC [6],MIC P. aeruginosa [7],MIC [7]
O=S(=O)(NC1CCN(CCC(Oc2ccc(C(F)(F)F)cc2)c2ccccc2)CC1)c1cccc(Cl)c1 (stereo not shown) [Compound 12],7.4 mg/L,14.2 mg/L,up to 8 fold,≤ 0.8 mg/L,–,–,–,–,–,–,–,–
O=S(=O)(NC1CCN(CCC(Oc2ccc(C(F)(F)F)cc2)c2cccs2)CC1)c1cccc(Cl)c1 (stereo not shown) [Compound 14],9.9 mg/L,28 mg/L,–,≤ 0.8 mg/L,–,–,–,–,–,–,–,–
O=S(=O)(NC1CCN(CCC(Oc2ccc(C(F)(F)F)cc2)c2cccs2)CC1)c1cccc(Br)c1 (stereo not shown) [Compound 18],–,–,–,≤ 0.8 mg/L,–,–,–,–,–,–,–,–
O=C(Nc1cccc(Cl)c1)NC1CCN(CCC(Oc2ccc(C(F)(F)F)cc2)c2cccs2)CC1 (stereo not shown) [Compound 25],13.2 mg/L,26.9 mg/L,–,≤ 0.8 mg/L,visible in sector F and G,bacteriostatic properties,exceeded 50 µg/mL,50 mg/L,exceeded 50 µg/mL,50 mg/L,exceeded 50 µg/mL,50 mg/L
"CC(=O)NC[C@H]1CN(c2ccc(N3CCOCC3)c(F)c2)C(=O)O1 [linezolid, reference compound]",–,16.9 mg/L,–,1.6 mg/L,–,bacteriostatic properties,–,50 mg/L,–,50 mg/L,–,50 mg/L
